Reference: PubChem BioAssay (NCI)
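48-hour exposure; five concentrations; linearly interpolated endpoints. GI50 marks 50% less growth. TGI denotes the concentration required for complete inhibition of growth.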

Assays:
Experiment in all cases: NCI-60 cell line screen, 48 h
[1] = test system: 786-0 renal
[2] = test system: A498 renal
[3] = test system: A549 NSCLC
[4] = test system: ACHN renal
[5] = test system: BT-549 breast
[6] = test system: CAKI-1 renal
[7] = test system: CCRF-CEM leukemia
[8] = test system: COLO 205 colon
[9] = test system: DU-145 prostate
[10] = test system: EKVX NSCLC
[11] = test system: HCC-2998 colon
[12] = test system: HCT-116 colon
[13] = test system: HCT-15 colon
[14] = test system: HL-60(TB) leukemia
[15] = test system: HOP-62 NSCLC
[16] = test system: HOP-92 NSCLC
[17] = test system: HS 578T breast
[18] = test system: HT29 colon
[19] = test system: IGROV1 ovarian
[20] = test system: K-562 leukemia
[21] = test system: KM12 colon
[22] = test system: LOX IMVI melanoma
[23] = test system: M14 melanoma
[24] = test system: MALME-3M melanoma
[25] = test system: MCF7 breast
[26] = test system: MDA-MB-231 breast
[27] = test system: MDA-MB-435
[28] = test system: MOLT-4 leukemia
[29] = test system: NCI-H226 lung
[30] = test system: NCI-H23 lung
[31] = test system: NCI-H460 lung
[32] = test system: NCI-H522 lung
[33] = test system: NCI/ADR-RES ovarian
[34] = test system: OVCAR-3 ovarian
[35] = test system: OVCAR-4 ovarian
[36] = test system: OVCAR-5 ovarian
[37] = test system: OVCAR-8 ovarian
[38] = test system: PC-3 prostate
[39] = test system: RPMI-8226 leukemia
[40] = test system: RXF 393 renal
[41] = test system: SF-268 CNS
[42] = test system: SF-295 CNS
[43] = test system: SF-539 CNS
[44] = test system: SK-MEL-28 melanoma
[45] = test system: SK-MEL-5 melanoma
[46] = test system: SK-OV-3 ovarian
[47] = test system: SN12C renal
[48] = test system: SNB-19 CNS
[49] = test system: SNB-75 CNS
[50] = test system: SR leukemia
[51] = test system: SW-620 colon
[52] = test system: T-47D breast
[53] = test system: TK-10 renal
[54] = test system: U251 CNS
[55] = test system: UACC-257 melanoma
[56] = test system: UACC-62 melanoma
[57] = test system: UO-31 renal

Work on `CN(c1ccc(Cl)c(Cl)c1)c1cnc2cc(N)cc(N)c2n1` yielded a GI50 [1] of 12.7 µM, a TGI [1] of 26 µM and a GI50 [2] of 17.6 µM. For the same compound, the TGI [2] was 32.3 µM, the GI50 [3] was 13.7 µM and the TGI [3] was 45.4 µM. It also gave a GI50 [4] of 4.64 µM, a TGI [4] of 16 µM and a GI50 [5] of 2.73 µM. It also gave a TGI [5] of 6.56 µM, a GI50 [6] of 4.08 µM and a TGI [6] of 17.6 µM. The GI50 [7] was 2.64 µM, the TGI [7] was 8.7 µM and the GI50 [8] was 1.79 µM. The TGI [8] was 3.47 µM, the GI50 [9] was 2.74 µM and the TGI [9] was 7.34 µM. The GI50 [10] was 3.63 µM, the TGI [10] was 11.2 µM and the GI50 [11] was 11.5 µM. The TGI [11] was 24.5 µM, the GI50 [12] was 2.31 µM and the TGI [12] was 4.9 µM. It also gave a GI50 [13] of 4.57 µM, a TGI [13] of 20.1 µM and a GI50 [14] of 2.26 µM. For the same compound, the TGI [14] was 7.56 µM, the GI50 [15] was 2.91 µM and the TGI [15] was 8.07 µM. For the same compound, the GI50 [16] was 13.1 µM, the TGI [16] was 33.4 µM and the GI50 [17] was 2.66 µM. For the same compound, the TGI [17] was 7.36 µM, the GI50 [18] was 4.07 µM and the TGI [18] was 22 µM. For the same compound, the GI50 [19] was 5.27 µM, the TGI [19] was 60.2 µM and the GI50 [20] was 4.21 µM. The TGI [20] was > 100 µM, the GI50 [21] was 7.2 µM and the TGI [21] was 25.8 µM. For the same compound, the GI50 [22] was 1.84 µM, the TGI [22] was 3.74 µM and the GI50 [23] was 1.91 µM. The TGI [23] was 3.44 µM, the GI50 [24] was 2.19 µM and the TGI [24] was 4.28 µM. For the same compound, the GI50 [25] was 2.03 µM, the TGI [25] was 4.93 µM and the GI50 [26] was 3.37 µM. The TGI [26] was 15.4 µM, the GI50 [27] was 1.91 µM and the TGI [27] was 3.99 µM. For the same compound, the GI50 [28] was 3.81 µM, the TGI [28] was > 100 µM and the GI50 [29] was 15.1 µM. It also gave a TGI [29] of 33.9 µM, a GI50 [30] of 2.11 µM and a TGI [30] of 4.47 µM. It also gave a GI50 [31] of 14.2 µM, a TGI [31] of 52.1 µM and a GI50 [32] of 2.58 µM. For the same compound, the TGI [32] was 6.5 µM, the GI50 [33] was 10.6 µM and the TGI [33] was 30.1 µM. The GI50 [34] was 2.36 µM, the TGI [34] was 10.9 µM and the GI50 [35] was 1.71 µM. For the same compound, the TGI [35] was 3.32 µM, the GI50 [36] was 15.7 µM and the TGI [36] was 30.5 µM. The GI50 [37] was 3.48 µM, the TGI [37] was 15.4 µM and the GI50 [38] was 4.15 µM. The TGI [38] was 18.1 µM, the GI50 [39] was 3.65 µM and the TGI [39] was 26 µM. For the same compound, the GI50 [40] was 4.19 µM, the TGI [40] was 40.3 µM and the GI50 [41] was 4.62 µM. It also gave a TGI [41] of 25 µM, a GI50 [42] of 3.58 µM and a TGI [42] of 12.4 µM. It also gave a GI50 [43] of 4.71 µM, a TGI [43] of 17 µM and a GI50 [44] of 2.98 µM. For the same compound, the TGI [44] was 8.06 µM, the GI50 [45] was 1.96 µM and the TGI [45] was 3.71 µM. For the same compound, the GI50 [46] was 13.6 µM, the TGI [46] was 37.8 µM and the GI50 [47] was 1.75 µM. The TGI [47] was 3.27 µM, the GI50 [48] was 3.75 µM and the TGI [48] was 15.1 µM. The GI50 [49] was 3.34 µM, the TGI [49] was 9.57 µM and the GI50 [50] was 3.77 µM. For the same compound, the TGI [50] was > 100 µM, the GI50 [51] was 2.04 µM and the TGI [51] was 4.34 µM. It also gave a GI50 [52] of 2.45 µM, a TGI [52] of 8.95 µM and a GI50 [53] of 13.2 µM. For the same compound, the TGI [53] was 27.7 µM, the GI50 [54] was 2.62 µM and the TGI [54] was 6.86 µM. It also gave a GI50 [55] of 1.81 µM, a TGI [55] of 3.59 µM and a GI50 [56] of 2.25 µM. The TGI [56] was 4.43 µM, the GI50 [57] was 3.4 µM and the TGI [57] was 16.6 µM.
